Measurements taken from patent US10807959B2, “WDR5-MLL1 inhibitors and modulators” (Vanderbilt University, priority 2018, dated 2020).

What follows are compounds tested against WDR5 (Homo sapiens (Human), UniProt P61964) (assay: TR-FRET binding assay, displacement of 10mer-Thr-FAM probe from His-tagged WDR5). Conditions: Inhibition of WDR5 by TR-FRET assay.
Experimental: The LanthaScreenTM Elite Tb-anti-HIS Antibody from ThermoFisher Scientific was used for this purpose. […] The ratio of the 520 and 495 signals are then utilized to generate a dose-response curve to calculate an IC50 value. […] WDR[…] tag protein is used at 2 nM.

SMILES	Ki [pM]
COc1cc(OC)cc(C(C)NC(=O)c2cc(CNC3=NCCN3)cc(-c3ccc(F)cc3C)c2)c1 (racemic) [Example 1, (±)-5-(((4,5-dihydro-1H-imidazol-2-yl)amino)methyl)-N-(1-(3,5-dimethoxyphenyl)ethyl)-4′-fluoro-2′-methyl-[1,1′-biphenyl]-3-carboxamide]	460
COc1ccc(CNC(=O)c2cc(CNC3=NCCN3)cc(-c3ccc(F)nc3C)c2)cc1OC [Example 4, 3-(((4,5-Dihydro-1H-imidazol-2-yl)amino)methyl)-N-(3,4-dimethoxybenzyl)-5-(6-fluoro-2-methylpyridin-3-yl)benzamide]	360
Cc1cc(CNC(=O)c2cc(CNC3=NCCN3)cc(-c3ccc(F)nc3C)c2)ccc1Cl [Example 5, N-(4-chloro-3-methylbenzyl)-3-(((4,5-dihydro-1H-imidazol-2-yl)amino)methyl)-5-(6-fluoro-2-methylpyridin-3-yl)benzamide]	20
Cc1cc(C)cc(CNC(=O)c2cc(CNC3=NCCN3)cc(-c3ccc(F)nc3C)c2)c1 [Example 6, 3-(((4,5-Dihydro-1H-imidazol-2-yl)amino)methyl)-N-(3,5-dimethylbenzyl)-5-(6-fluoro-2-methylpyridin-3-yl)benzamide]	140
COc1cc(CN(C)C(=O)c2cc(CNC3=NCCN3)cc(-c3ccc(F)nc3C)c2)cc(OC)c1 [Example 8, 3-(((4,5-Dihydro-1H-imidazol-2-yl)amino)methyl)-N-(3,5-dimethoxybenzyl)-5-(6-fluoro-2-methylpyridin-3-yl)-N-methylbenzamide]	12000
Cc1ccnc(C(NC(=O)c2cc(CNC3=NCCN3)cc(-c3ccc(F)nc3C)c2)C2CC2)c1 (stereo not drawn) [Example 9, N-(Cyclopropyl(4-methylpyridin-2-yl)methyl)-3-(((4,5-dihydro-1H-imidazol-2-yl)amino)methyl)-5-(6-fluoro-2-methylpyridin-3-yl)benzamide]	< 100
Cc1nc(F)ccc1-c1cc(CNC2=NCCN2)cc(C(=O)NC(C2CC2)C2CC2)c1 [Example 10, N-(dicyclopropylmethyl)-3-(((4,5-dihydro-1H-imidazol-2-yl)amino)methyl)-5-(6-fluoro-2-methylpyridin-3-yl)benzamide]	2900
COc1ccnc(CNC(=O)c2cc(CNC3=NCCN3)cc(-c3ccc(F)nc3C)c2)c1 [Example 11, 3-(((4,5-Dihydro-1H-imidazol-2-yl)amino)methyl)-5-(6-fluoro-2-methylpyridin-3-yl)-N-((4-methoxypyridin-2-yl)methyl)benzamide]	220
Cc1ccncc1-c1cc(CNC2=NCCN2)cc(C(=O)NCc2ccc(Cl)c(Cl)c2)c1 [Example 12, N-(3,4-dichlorobenzyl)-3-(((4,5-dihydro-1H-imidazol-2-yl)amino)methyl)-5-(4-methylpyridin-3-yl)benzamide]	< 100
COc1cc(CNC(=O)c2cc(CNC3=NCCN3)cc(-c3cnccc3C)c2)cc(OC)c1 [Example 13, 3-(((4,5-dihydro-1H-imidazol-2-yl)amino)methyl)-N-(3,5-dimethoxybenzyl)-5-(4-methylpyridin-3-yl)benzamide]	530
COc1ccc(CNC(=O)c2cc(CNC3=NCCN3)cc(-c3cnccc3C)c2)cc1Cl [Example 14, N-(3-chloro-4-methoxybenzyl)-3-(((4,5-dihydro-1H-imidazol-2-yl)amino)methyl)-5-(4-methylpyridin-3-yl)benzamide]	740
COc1ccc(CNC(=O)c2cc(CNC3=NCCN3)cc(-c3ccnc(C)c3)c2)cc1OC [Example 15, 3-(((4,5-dihydro-1H-imidazol-2-yl)amino)methyl)-N-(3,4-dimethoxybenzyl)-5-(2-methylpyridin-4-yl)benzamide]	1700
Cc1cc(-c2cc(CNC3=NCCN3)cc(C(=O)NCc3cc(F)cc(Cl)c3)c2)ccn1 [Example 16, N-(3-chloro-5-fluorobenzyl)-3-(((4,5-dihydro-1H-imidazol-2-yl)amino)methyl)-5-(2-methylpyridin-4-yl)benzamide]	520
COc1cc(CNC(=O)c2cc(CNC3=NCCN3)cc(-c3ccnc(C)c3)c2)ccc1Cl [Example 17, N-(4-chloro-3-methoxybenzyl)-3-(((4,5-dihydro-1H-imidazol-2-yl)amino)methyl)-5-(2-methylpyridin-4-yl)benzamide]	3200
COc1cc(CNC(=O)c2cc(CNC3=NCCN3)cc(-c3cnccc3C)c2)ccc1Cl [Example 18, N-(4-Chloro-3-methoxybenzyl)-3-(((4,5-dihydro-1H-imidazol-2-yl)amino)methyl)-5-(4-methylpyridin-3-yl)benzamide]	3100
COc1ccnc(CNC(=O)c2cc(CNC3=NCCN3)cc(-c3cnccc3C)c2)c1 [Example 19, 3-(((4,5-Dihydro-1H-imidazol-2-yl)amino)methyl)-N-((4-methoxypyridin-2-yl)methyl)-5-(4-methylpyridin-3-yl)benzamide]	450
COc1cc(OC)cc(C(C)NC(=O)c2cc(CNC3=NCCN3)cc(-c3cnccc3C)c2)c1 (stereo not drawn) [Example 20, 3-(((4,5-dihydro-1H-imidazol-2-yl)amino)methyl)-N-(1-(3,5-dimethoxyphenyl)ethyl)-5-(4-methylpyridin-3-yl)benzamide]	600

SMILES	Ki [pM]
COc1ccnc(CNC(=O)c2cc(CNC3=NCCN3)cc(-c3ccnc(C)c3)c2)c1 [Example 21, 3-(((4,5-Dihydro-1H-imidazol-2-yl)amino)methyl)-N-((4-methoxypyridin-2-yl)methyl)-5-(2-methylpyridin-4-yl)benzamide]	390
Cc1cc(-c2cc(CNC3=NCCN3)cc(C(=O)NCc3cc(Cl)ccn3)c2)ccn1 [Example 22, N-((4-chloropyridin-2-yl)methyl)-3-(((4,5-dihydro-1H-imidazol-2-yl)amino)methyl)-5-(2-methylpyridin-4-yl)benzamide]	280
COc1ccc(CNC(=O)c2cc(CNC3=NCCN3)cc(-c3ccnc(C)c3)c2)cc1Cl [Example 23, N-(3-chloro-4-methoxybenzyl)-3-(((4,5-dihydro-1H-imidazol-2-yl)amino)methyl)-5-(2-methylpyridin-4-yl)benzamide]	1300
Cc1ccncc1-c1cc(CNC2=NCCN2)cc(C(=O)NCc2cc(F)cc(Cl)c2)c1 [Example 24, N-(3-chloro-5-fluorobenzyl)-3-(((4,5-dihydro-1H-imidazol-2-yl)amino)methyl)-5-(4-methylpyridin-3-yl)benzamide]	370
Cc1ccnc(C(NC(=O)c2cc(CNC3=NCCN3)cc(-c3cnccc3C)c2)C2CC2)c1 (stereo not drawn) [Example 25, N-(cyclopropyl(4-methylpyridin-2-yl)methyl)-3-(((4,5-dihydro-1H-imidazol-2-yl)amino)methyl)-5-(4-methylpyridin-3-yl)benzamide]	200
Cc1ccc(CNC(=O)c2cc(CNC3=NCCN3)cc(-c3ccnc(C)c3)c2)cn1 [Example 26, 3-(((4,5-dihydro-1H-imidazol-2-yl)amino)methyl)-N-((6-methylpyridin-3-yl)methyl)-5-(2-methylpyridin-4-yl)benzamide]	3000
Cc1cc(-c2cc(CNC3=NCCN3)cc(C(=O)NCc3ccc(Cl)cn3)c2)ccn1 [Example 27, N-((5-chloropyridin-2-yl)methyl)-3-(((4,5-dihydro-1H-imidazol-2-yl)amino)methyl)-5-(2-methylpyridin-4-yl)benzamide]	1500
Cc1ccc(CNC(=O)c2cc(CNC3=NCCN3)cc(-c3cnccc3C)c2)cn1 [Example 28, 3-(((4,5-Dihydro-1H-imidazol-2-yl)amino)methyl)-5-(4-methylpyridin-3-yl)-N-((6-methylpyridin-3-yl)methyl)benzamide]	7600
Cc1cc(-c2cc(CNC3=NCCN3)cc(C(=O)NCc3nccc(C)n3)c2)ccn1 [Example 29, 3-(((4,5-Dihydro-1H-imidazol-2-yl)amino)methyl)-5-(2-methylpyridin-4-yl)-N-((4-methylpyrimidin-2-yl)methyl)benzamide]	13000
COc1cc(CNC(=O)c2cc(CNC3=NCCN3)cc(-c3cnc(F)c(C)c3)c2)cc(OC)c1 [Example 30, 3-(((4,5-Dihydro-1H-imidazol-2-yl)amino)methyl)-N-(3,5-dimethoxybenzyl)-5-(6-fluoro-5-methylpyridin-3-yl)benzamide]	330
Cc1cc(CNC(=O)c2cc(CNC3=NCCN3)cc(-c3cnc(F)c(C)c3)c2)ccc1Cl [Example 31, N-(4-Chloro-3-methylbenzyl)-3-(((4,5-dihydro-1H-imidazol-2-yl)amino)methyl)-5-(6-fluoro-5-methylpyridin-3-yl)benzamide]	< 100
Cc1cccc(Oc2cc(CNC3=NCCN3)cc(C(=O)NCc3ccc(Cl)c(Cl)c3)c2)c1 [Example 32, N-(3,4-Dichlorobenzyl)-3-(((4,5-dihydro-1H-imidazol-2-yl)amino)methyl)-5-(m-tolyloxy)benzamide]	910
COc1cc(OC)cc(C(C)NC(=O)c2cc(CNC3=NCCN3)cc(C(F)(F)F)c2)c1 (stereo not drawn) [Example 33, 3-(((4,5-Dihydro-1H-imidazol-2-yl)amino)methyl)-N-(1-(3,5-dimethoxyphenyl)ethyl)-5-(trifluoromethyl)benzamide]	8900
COc1cc(CNC(=O)c2cc(CNC3=NCCN3)cc(-c3cnc(OC)c(Cl)c3)c2)cc(OC)c1 [Example 34, 3-(5-Chloro-6-methoxypyridin-3-yl)-5-(((4,5-dihydro-1H-imidazol-2-yl)amino)methyl)-N-(3,5-dimethoxybenzyl)benzamide]	370
COc1cc(CNC(=O)c2cc(CNC3=NCCN3)cc(-c3cnc(F)c(Cl)c3)c2)cc(OC)c1 [Example 35, 3-(5-Chloro-6-fluoropyridin-3-yl)-5-(((4,5-dihydro-1H-imidazol-2-yl)amino)methyl)-N-(3,5-dimethoxybenzyl)benzamide]	360
Cc1cnc(CNC(=O)c2cc(CNC3=NCCN3)cc(-c3ccc(F)nc3C)c2)cn1 [Example 36, 3-(((4,5-dihydro-1H-imidazol-2-yl)amino)methyl)-5-(6-fluoro-2-methylpyridin-3-yl)-N-((5-methylpyrazin-2-yl)methyl)benzamide]	2800
